Measurements as given in patent publication US20080311126A1, “Antisense Oligonucleotides Directed to Ribonucleotide Reducatase R2 and Uses Thereof in Combination Therapies for the Treatment of Cancer” (Genesense Technologies, Inc, priority 2004, published 2008).
Oligonucleotides are written 5' to 3', each unit as a sugar letter and its base; * is a phosphorothioate linkage, no mark a phosphodiester; rarer units and linkages stand in square brackets, end groups in braces. Plain capitals give the bases only. d = 2'-deoxy (DNA)

Legend:
[1] = system: HepG2 hepatocellular carcinoma; experiment: Relative colony forming efficiency (Example 17, Table 13); format: cell-based, human; settings: averages of 2-8 determinations
Method in brief: (§1)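 Antisense phosphorothioates are tested at 0.2 μM unless stated, transfected with DOTMA/DOPE (2.5 μg) for four hours. Colony counts after methylene blue staining give percent inhibition versus vehicle-lipid controls.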

[2] = system: HCT116 colon cell carcinoma; experiment: as above; format: cell-based, human; settings: averages of 2-8 determinations
Method in brief: as §1

[3] = system: H596 lung adenosquamous carcinoma cells; experiment: as above; format: cell-based, human; settings: averages of 2-8 determinations
Method in brief: as §1

A549 lung cell carcinoma = experiment: as above; format: cell-based, human; settings: averages of 2-8 determinations
Method in brief: as §1

[4] = system: T-47D breast ductal carcinoma; experiment: as above; format: cell-based, human; settings: averages of 2-8 determinations
Method in brief: as §1

[5] = system: Colo320 colon cell adenocarcinoma; experiment: as above; format: cell-based, human; settings: averages of 2-8 determinations
Method in brief: as §1

[6] = system: T24 bladder cell carcinoma; experiment: as above; format: cell-based, human; settings: averages of 2-8 determinations
Method in brief: as §1

[7] = system: MDA PaCa-2 pancreatic cell carcinoma; experiment: as above; format: cell-based, human; settings: MIA PaCa-2 pancreatic cell carcinoma; averages of 2-8 determinations
Method in brief: as §1

[8] = system: MDA-MB-231 breast cell adenocarcinoma; experiment: as above; format: cell-based, human; settings: averages of 2-8 determinations
Method in brief: as §1

[9] = system: PC-3 prostrate cell adenocarcinoma; experiment: as above; format: cell-based, human; settings: averages of 2-8 determinations
Method in brief: as §1

Hela S3 cells = experiment: Relative colony forming efficiency, lipofectin +/- oligonucleotide 4 hours; format: cell-based, human; settings: Hela S3 cervix carcinoma cells; averages of 2-8 determinations
Method in brief: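 Survival is given as percent of lipofectin-treated controls, scored as methylene blue-stained colonies after 7–10 days of regrowth. Beforehand, HeLa S3 cultures received a 4 h lipofectin-mediated pulse of oligonucleotide, normally at 0.2 μM.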

[10] = system: A2058 human melanoma cells; experiment: A2058 melanoma xenograft in CD-1 nude mice; format: in vivo; settings: A2058 (melanoma); Mouse CD-1
Protocol: A2058 human melanoma cells 1×10^7 cells in 100 μl of PBS) were subcutaneously injected into the right flank of 6-7 week old female CD-1 nude mice. A2058 is a metastatic melanoma cell line. After the size of tumour reached an approximate volume of 100 mm^3, 6 days post tumour cell injection, SEQ ID NO:1 was administered by bolus infusion into the tail vein every other day at 10 mg/kg. Control animals received saline alone for the same period. Antitumour effect of SEQ ID NO:1 was further compared to that of dacarbazine (DTIC) alone or that of SEQ ID NO:1 in combination with DTIC. DTIC was administered intravenously for 5 days in a row from day 6-10 at a dose of 80 mg/kg in 100 μl saline. All treatments were stopped at day 24. A day after the last treatment, tumours were excised from the animals and their weights were measured.

[11] = system: HT-29 human colon cancer cells; experiment: HT-29 colon tumour xenograft in CD-1 nude mice; format: in vivo; settings: HT-29 (colon); Mouse CD-1; CPT-11 study
Protocol: HT-29 human colon cancer cells (3×10^6 cells in 100 μl of PBS) were subcutaneously injected into the right flank of 6-7 weeks old female CD-1 nude mice. After the size of tumour reached an approximate volume of 50 mm^3, 4 days post tumour cell injection, mitomycin C was administered by bolus infusion into the tail vein at days 4, 11 and 18 with a dose of 3.5 mg/kg/week. Antitumour effect of mitomycin C was further compared to that of SEQ ID NO:1 in combination with mitomycin C. SEQ ID NO:1 was administered by bolus infusion into the tail vein every day at 6 mg/kg and mitomycin C was administered intravenously at days 4, 11 and 18 with a dose of 3.5 mg/kg/week, one hour after the treatments with SEQ ID NO:1. Control animals received saline alone for the same period as SEQ ID NO:1. All treatments were stopped at day 22. A day after the last treatment, tumours were excised from the animals and their weights were measured.
HT-29 human colon cancer cells (3×10^6 cells in 100 μl of PBS) were subcutaneously injected into the right flank of 5-6 week old female CD-1 nude mice. After the size of tumour reached an approximate volume of 100 mm^3, 7 days post tumour cell injection, SEQ ID NO:1 was administered by bolus infusion into the tail vein every other day at 10 mg/kg. Control animals received saline alone for the same period. Antitumour effect of SEQ ID NO:1 was further compared to that of CPT-11 alone or that of SEQ ID NO:1 in combination with CPT-11. CPT-11 was administered intraperitoneally for 5 days in a row from […] with a dose of 20 mg/kg in 100 μl saline. All treatments were stopped at day 32. A day after the last treatment, tumours were excised from the animals and their weights were measured.
HT-29 human colon cancer cells (3×10^6 cells in 100 μl of PBS) were subcutaneously injected into the right flank of 6-7 week old female CD-1 nude mice. Treatments started at day 5 post tumour cell injection, SEQ ID NO:1 and 5-FU were administered as outlined below: • Groups and treatment: • Group 1. Saline treated group: saline:0.1 ml/2 days, i.v.; • Group 2. SEQ ID NO:1 treated group: 10 mg/kg/2 days in 100 μL saline, i.v.; • Group 3. 5-FU treated group:13 mg/kg/5 days/week (one week on and one week off), i.v.; • Group 4. SEQ ID NO:1 plus 5-FU treated group.
HT-29 human colon cancer cells (3×10^6 cells in 100 μl of PBS) were subcutaneously injected into the right flank of 5-6 week old female CD-1 nude mice. Treatments started 4 days post tumour cell injection, SEQ ID NO: 1 and Capecitabine were administered as outlined below: • Group and Treatment: • Group 1: treated with 0.2 ml vehicle solution for capecitabine, o.p.; • Group 2: treated with 0.1 ml saline, i.v.; • Group 3: treated with 359 mg/kg/day×5/w Capecitabine in 0.2 ml vehicle solution, o.p.; • Group 4: treated with 10 mg/kg/2 days SEQ ID NO:1 in 0.1 ml saline i.v.; • Group 5: treated with 10 mg/kg/2 days SEQ ID NO:1 in 0.1 ml saline, i.v. plus 359 mg/kg/day×5/w capecitabine in 0.2 ml vehicle solution, o.p.

[12] = system: LS513 multi-drug resistant colon carcinoma cells; experiment: LS513 multi-drug resistant colon carcinoma xenograft in SCID mice; format: in vivo, human; settings: LS513 (colon) multi-drug resistant (CPT-11 sensitive); SCID
Protocol: LSS13 multi-drug resistant colon carcinoma cells (1×10^7 cells in 100 μl of PBS) were subcutaneously injected into the right flank of 6-7 weeks old female SCID mice. After the size of tumour reached an approximate volume of […], 8 days post tumour cell injection, SEQ ID NO:1 was administered by bolus infusion into the tail vein every other day at 10 mg/kg. Control animals received saline alone for the same period. Antitumour effect of SEQ ID NO:1 was further compared to that of CPT-11 alone or in combination. CPT-11 was administered i.p. for 5 days at a dose of 20 mg/kg/day. Antitumour activities were estimated by the inhibition of tumour volume, which was measured with caliper. Each point represents mean tumour volume calculated from 10 animals per experimental group. Tumour weights were measured after animals were sacrificed at the end of the treatment. These cells are not resistant to CPT-11 which was used as a positive control.

[13] = system: DU145 human prostatic cancer cells; experiment: DU145 prostatic tumour xenograft in SCID mice; format: in vivo; settings: for Tumour weight as % of saline control: DU145 (prostatic), Mouse SCID
Protocol: In both experiments, DU145 human prostatic cancer cells (1×10^7 cells in 100 μl of PBS) were subcutaneously injected into the right flank of 6-7 weeks old male SCID mice. After the size of tumour reached an approximate volume of 50 mm^3, 13 FIG. 15A) or 11 (FIG. 15B) days post tumour cell injection, SEQ ID NO:1 was administered by bolus infusion into the tail vein every other day at 10 mg/kg 15 times (FIG. 15A) or 14 times (FIG. 15B), respectively. Control animals received saline alone for the same period. Antitumour effect of SEQ ID NO:1 was further compared to that of mitoxantrone (Novantrone®) alone or in combination. Mitoxantrone was administered intravenously once at the beginning of the treatments at a dose of 2 mg/kg (FIG. 15A) or once a week for four weeks at a reduced dose of 0.8 mg/kg (FIG. 15B). All treatments were stopped at day 42 (FIG. 15A) or 38 (FIG. 15B); respectively. A day after the last treatment, tumours were excised from the animals and their weights were measured.

[14] = system: PC-3 human prostatic cancer cells; experiment: PC-3 prostatic tumour xenograft in SCID mice; format: in vivo
Protocol: In both experiments, PC-3 human prostatic cancer cells (1×10^7 cells in 100 μl of PBS) were subcutaneously injected into the right flank of 6-7 weeks old male SCID mice. After the size of tumour reached an approximate volume of 50 mm^3, 14 days post tumour cell injection, SEQ ID NO:1 was administered by bolus infusion into the tail vein every other day at 10 mg/kg 18 times (FIG. 14A) or 17 times (FIG. 14B), respectively. Control animals received saline alone for the same period. Antitumour effect of SEQ ID NO:1 was further compared to that of mitoxantrone (Novantrone®) alone or in combination. Mitoxantrone was administered intravenously once at the beginning of the treatments at a dose of 2 mg/kg (FIG. 14A) or once a week for four weeks at a reduced dose of 0.8 mg/kg (FIG. 14B). All treatments were stopped at day 50 (FIG. 14A) or 48 (FIG. 14B), respectively. A day after the last treatment, tumours were excised from the animals and their weights were measured.

Molecule | Reduced relative colony forming efficiency, HepG2 (% inhibition of colony forming ability) [1] | Reduced relative colony forming efficiency, HCT116 (% inhibition of colony forming ability) [2] | Reduced relative colony forming efficiency, 11596 (% inhibition of colony forming ability) [3] | Reduced relative colony forming efficiency, A549 (% inhibition of colony forming ability) (A549 lung cell carcinoma) | Reduced relative colony forming efficiency, T-47D (% inhibition of colony forming ability) [4] | Reduced relative colony forming efficiency, Co1o320 (% inhibition of colony forming ability) [5] | Reduced relative colony forming efficiency, MIA PaCa-2 (% inhibition of colony forming ability) [7] | Reduced relative colony forming efficiency, MDA-MB-231 (% inhibition of colony forming ability) [8] | Reduced relative colony forming efficiency, PC-3 (% inhibition of colony forming ability) [9] | Reduced relative colony forming efficiency, Hela S3 (% inhibition of colony forming ability) (Hela S3 cells) | further results
CCTTGCCCTGAGAGATTCCT (antisense dC*dC*dT*dT*dG*dC*dC*dC*dT*dG*dA*dG*dA*dG*dA*dT*dT*dC*dC*dT) [AS-II-2083-20] | 93.64% | 87.46% | 82.98% | 90.65% | 89.32% | 87.28% | 71% | 68.88% | 32.03% | 84.58% | Reduced relative colony forming efficiency, HepG2 (% inhibition of colony forming ability) ([1]; listed as AS-II-2083-20 *): 46.14%; Reduced relative colony forming efficiency, HCT116 (% inhibition of colony forming ability) ([2]; listed as AS-II-2083-20 *): 41.16%; Reduced relative colony forming efficiency, 11596 (% inhibition of colony forming ability) ([3]; listed as AS-II-2083-20 *): 49.37%; Reduced relative colony forming efficiency, A549 (% inhibition of colony forming ability) (A549 lung cell carcinoma; listed as AS-II-2083-20 *): 31.73%; Reduced relative colony forming efficiency, T-47D (% inhibition of colony forming ability) ([4]; listed as AS-II-2083-20 *): 43.61%; Reduced relative colony forming efficiency, Co1o320 (% inhibition of colony forming ability) ([5]; listed as AS-II-2083-20 *): 52.54%; Reduced relative colony forming efficiency, T24 (% inhibition of colony forming ability) [6]: 82.43%; Reduced relative colony forming efficiency, T24 (% inhibition of colony forming ability) ([6]; listed as AS-II-2083-20 *): 9.52%
CN(C)/N=N/c1[nH]cnc1C(N)=O [DTIC, dacarbazine, reference compound] | – | – | – | – | – | – | – | – | – | – | Tumour weight as % of saline control [10]: 68%
CCc1c2c(nc3ccc(OC(=O)N4CCC(N5CCCCC5)CC4)cc13)-c1cc3c(c(=O)n1C2)COC(=O)[C@]3(O)CC [CPT-11, Irinotecan, reference compound] | – | – | – | – | – | – | – | – | – | – | Tumour weight as % of saline control [11]: 36%; Tumour weight as % of saline control [12]: 47%
GAGCAGCCAGGACAGGACGG (antisense dG*dA*dG*dC*dA*dG*dC*dC*dA*dG*dG*dA*dC*dA*dG*dG*dA*dC*dG*dG) [AS-II-151-20] | 89.53% | 78.09% | 69.12% | 84.28% | 95.39% | 90.12% | 75.38% | 41.64% | 35.68% | 66.75% | –
O=C1c2c(O)ccc(O)c2C(=O)c2c(NCCNCCO)ccc(NCCNCCO)c21 [Novantrone, mitoxantrone] | – | – | – | – | – | – | – | – | – | – | Tumour weight as % of saline control ([13]; first of two value columns (two independent experiments)): 40%; Tumour weight as % of saline control ([13]; second of two value columns (two independent experiments)): 60%; antitumour effect (tumour weight) ([13]; FIG. 15B, SEQ ID NO:1 10 mg/kg 14 times, mitoxantrone 0.8 mg/kg once a week for four weeks): significant delay of tumour growth; antitumour effect (tumour weight) ([14]; FIG. 14B, SEQ ID NO:1 10 mg/kg 17 times, mitoxantrone 0.8 mg/kg once a week for four weeks): significant delay of tumour growth; Tumour weight as % of saline control ([14]; PC-3 (prostatic), Mouse SCID): 57%
